One compound from US20020198379A1, “Active compound from a sponge” (Pharma Mar, s.a., priority 1993, published 2002) can be followed below.

In series [1] the test system is mixed lymphocyte reaction (MLR). Nature of the series: mixed lymphocyte reaction (MLR). It is filed as cell-based. The following applies: read-out: IC.
For series [2], the system named is B. subtilis. The series is described as follows: antibiotic disk assay, B. subtilis. It is filed as cell-based. The following applies: 10 μg/disk.
Series [3] has as its system S. aureus. The series is described as follows: antibiotic disk assay, S. aureus. It is filed as cell-based. The following applies: 10 μg/disk.
The subject of series [4] is Penicillium notatum. The series is described as follows: antifungal disk assay, Penicillium notatum. It counts as cell-based. The following applies: Penicillium chrysogenum, 50 μg/disk.
Series [5] in a line: pH stability. It counts as physicochemical. The method, then:
Palau'amine was isolated from the sponge as follows. Extraction of the lyophilized sponge (600 g) with MeOH (6 L) and dissolution of the water soluble residue after evaporation yielded 900 ml of an aqueous extract. [The dust from the lyophilized sponge caused a powerful allergic reaction, which entailed severe shortness of breath for about four hours; the effect largely disappeared within 24 hours]. […] Repeated LH-20 chromatography (MeOH) of the 0.5 fraction, after desalting by dissolving in EtOH, furnished essentially pure palau'amine, presumably as the hydrochloride, (14 mg, 0.01% dry weight) as an optically active, off-white amorphous powder that decomposed prior to melting. Further purification of palau'amine could be effected by HPLC [YMC aqueous C18, H2O/MeCN (90:10), 0.1% TFA].

The subject of series [6] is P-388. Nature of the series: in vitro antitumor activity, P-388 tumour cells. It counts as cell-based. The following applies: Mus musculus, P388.
Series [7] can be described thus: LD50 i.p. in mice. The following applies: mouse, in vivo, ip.
Series [8] has as its system KB. Nature of the series: in vitro antitumor activity, KB tumour cells. It counts as cell-based. The following applies: Homo sapiens.
In series [9] the test system is primary culture of murine lymphocytes. Nature of the series: cytotoxicity assay against primary culture of murine lymphocytes. It is filed as cell-based. The following applies: Mus musculus, Lymphocyte.
In series [10] the test system is human colon carcinoma HT-29. The series is described as follows: in vitro antitumor activity, HT-29 tumour cells. It is filed as cell-based. Here is the method:
(§1) The antitumor activities of this compound have been determined “in vitro” in cell cultures of human lung carcinoma A-549 and human colon carcinoma HT-29. The procedure was carried out using the methodology described by Raymond J. Bergeron et al. Biochem. Bioph. Res. Comm. 1984, 121(3), 848-854 and by Alan C. Schroeder et al. J. Med. Chem. 1981, 24 1078-1083.
(§2) The compound is active against the following tumour cells at the inhibiting concentrations noted: […]

Series [11] has as its system human lung carcinoma A-549. The series is described as follows: in vitro antitumor activity, A-549 tumour cells. It counts as cell-based. The following applies: A549. Here is the method: as §1, §2

Molecules are shown by their SMILES. ≈ marks a conversion by molar mass, not a printed value.

In the case of `NC[C@H]1[C@H]2CN3C(=O)c4cccn4[C@H]4N=C(N)NC43[C@H]2[C@@]2(N=C(N)N[C@@H]2O)[C@@H]1Cl` (stereo partly drawn) [palau'amine], the IC50 is less than 0.018 µg/mL in series [1]; 0.1 µg/mL (≈ 0.238 µM) in [6]; 10 µg/mL (≈ 23.8 µM) in [8]; 1.5 µg/mL (≈ 3.57 µM) in [9]; 2 µg/mL (≈ 4.76 µM) in series [10]; 0.2 µg/mL (≈ 0.476 µM) in series [11]. The antibiotic activity entry in series [2] and in [3] was “antibiotic activity” throughout. Also, in series [4], the zone of inhibition (usually the extent of the growth-free halo in a diffusion test) at 50 µg/disc was 24 mm. Further, the “stability >pH 6.5” value in series [5] (>pH 6.5) is listed as “decomposes rapidly”. Moreover, the stability in acid entry in [5] (in acid) was “quite stable”. The LD50 (usually the dose expected to kill half of the subjects tested) in series [7] is 13 mg/kg.
